Measured values published in US11634393B2, “Substituted tolyl fungicides” (FMC CORPORATION, priority 2018, dated 2023).

Tests used:
[1] = test system: Puccinia recondita f. sp. tritici; assay: Test B: wheat leaf rust, spray on wheat seedlings, disease control rating; assay type: in vivo; settings: Rate 10 ppm, 100 = 100% disease control, 0 = no disease control relative to the controls; for pest or weed control at 10 ppm: Puccinia recondita, 192 h
Text: (§1) General protocol for preparing test suspensions for Tests A-F: the test compounds were first dissolved in acetone in an amount equal to 3% of the final volume and then suspended at the desired concentration (in ppm) in acetone and purified water (50/50 mix by volume) containing 250 ppm of the surfactant PEG400 (polyhydric alcohol esters). The resulting test suspensions were then used in Tests A-F.
The test solution was sprayed to the point of run-off on wheat seedlings. The following day the seedlings were inoculated with a spore suspension of Puccinia recondita f. sp. tritici (the causal agent of wheat leaf rust) and incubated in a saturated atmosphere at 20° C. for 24 h, and then moved to a growth chamber at 20° C. for 7 days, after which time disease ratings were made.
(§2) A rating of 100 indicates 100% disease control and a rating of 0 indicates no disease control (relative to the controls). A dash (-) indicates the compound was not tested.

Phakopsora pachyrhizi = assay: Test D: Asian soybean rust, spray on soybean seedlings, disease control rating; assay type: in vivo; settings: Rate 10 ppm, 100 = 100% disease control, 0 = no disease control relative to the controls; for pest or weed control at 10 ppm: Phakopsora pachyrhizi, 216 h
Text: as §1
The test solution was sprayed to the point of run-off on soybean seedlings. The following day the seedlings were inoculated with a spore suspension of Phakopsora pachyrhizi (the causal agent of Asian soybean rust) and incubated in a saturated atmosphere at 22° C. for 24 h and then moved to a growth chamber at 22° C. for 8 days, after which time visual disease ratings were made.
as §2

Molecule | pest or weed control at 10 ppm [1] | pest or weed control at 10 ppm (Phakopsora pachyrhizi) | Test B disease control rating [1] | Test D disease control rating (Phakopsora pachyrhizi)
COC(=O)NCc1cc(-c2ccn(-c3c(Cl)cc(C4CC4)cc3Cl)n2)ccc1C [Compound 65, methyl N-[[5-[1-(2,6-dichloro-4-cyclopropylphenyl)-1H-pyrazol-3-yl]-2-methylphenyl]methyl]carbamate] | 97% | 100% | – | –
COC(=O)NCc1cc(-c2ccn(-c3c(F)cc(C(C)O)cc3F)n2)ccc1C (stereo not shown) [Compound 96] | – | – | 68% | 79%
COC(=O)NCc1cc(-c2ccn(-c3c(C)cccc3Br)n2)ccc1C [Compound 61] | 68% | 97% | – | –
COC(=O)NCc1cc(-c2ccn(-c3c(F)cc(C=NO)cc3F)n2)ccc1C [Compound 72] | – | – | 100% | 77%
COC(=O)NCc1cc(-c2ccn(-c3c(Br)cc(I)cc3Br)n2)ccc1C [Compound 136] | 19% | 59% | – | –
COC(=O)NCc1cc(-c2ccn(-c3c(F)cc(C(C)(C)O)cc3F)n2)ccc1C [Compound 95] | – | – | 0% | 53%
methyl N-[[5-[1-(2,6-difluoro-4-methoxyphenyl)-1H-pyrazol-3-yl]-2-methylphenyl]methyl]carbamate [Compound 33] | – | – | 99% | 100%
COC(=O)NCc1cc(-c2ccn(-c3c(F)cc(C(C)=NOC(C)C)cc3F)n2)ccc1C [Compound 86] | – | – | 99% | 100%
COC(=O)NCc1cc(-c2ccn(-c3c(F)cc(OC(F)(F)C(F)F)cc3F)n2)ccc1C [Compound 29] | – | – | 100% | 100%
COC(=O)NCc1cc(-c2ccn(-c3c(C)cc(OC)cc3C)n2)ccc1C [Compound 40] | 0% | 99% | – | –
COC(=O)NCc1cc(-c2ccn(-c3c(F)cc(Cl)cc3Cl)n2)ccc1C [Compound 51] | 100% | 100% | – | –
COC(=O)NCc1cc(-c2ccn(-c3c(F)cc(OC(F)(F)F)cc3F)n2)ccc1C [Compound 78, methyl N-[[5-[1-[2,6-difluoro-4-(trifluoromethoxy)phenyl]-1H-pyrazol-3-yl]-2-methylphenyl]methyl]carbamate] | 100% | 100% | – | –
C=CCON=C(C)c1cc(F)c(-n2ccc(-c3ccc(C)c(CNC(=O)OC)c3)n2)c(F)c1 [Compound 85] | – | – | 90% | 98%
COC(=O)NCc1cc(-c2ccn(-c3c(F)cc(OC4CCCC4)cc3F)n2)ccc1C [Compound 90] | – | – | 86% | 100%
COC(=O)NCc1cc(-c2ccn(-c3c(F)cc(OC(C)(C)C)cc3F)n2)ccc1C [Compound 93] | – | – | 100% | 100%
CON=Cc1cc(F)c(-n2ccc(-c3ccc(C)c(CNC(=O)OC)c3)n2)c(F)c1 [Compound 79] | – | – | 100% | 100%
COC(=O)NCc1cc(-c2ccn(-c3c(F)cc(N)cc3Cl)n2)ccc1C [Compound 39] | 0% | 0% | – | –
COC(=O)NCc1cc(-c2ccn(-c3c(F)cccc3Br)n2)ccc1C [Compound 46] | 68% | 100% | – | –
COC(=O)NCc1cc(-c2ccn(-c3c(F)cc(NC(C)=O)cc3F)n2)ccc1C [Compound 25] | – | – | 8% | 81%
C=CCON=Cc1cc(F)c(-n2ccc(-c3ccc(C)c(CNC(=O)OC)c3)n2)c(F)c1 [Compound 81] | – | – | 92% | 100%
COC(=O)NCc1cc(-c2ccn(-c3c(F)cc(OCC4CC4)cc3F)n2)ccc1C [Compound 9] | – | – | 99% | 99%
COC(=O)NCc1cc(-c2ccn(-c3c(F)cc(OC4CCCCC4)cc3F)n2)ccc1C [Compound 91] | – | – | 86% | 79%
COC(=O)NCc1cc(-c2ccn(-c3c(F)cc(C(C)(C)F)cc3F)n2)ccc1C [Compound 97] | – | – | 100% | 100%
COC(=O)NCc1cc(-c2ccn(-c3c(C)cc(N)cc3C)n2)ccc1C [Compound 38] | 0% | 0% | – | –

Molecule | pest or weed control at 10 ppm [1] | pest or weed control at 10 ppm (Phakopsora pachyrhizi) | Test B disease control rating [1] | Test D disease control rating (Phakopsora pachyrhizi)
CCON=C(C)c1cc(F)c(-n2ncc(-c3ccc(C)c(CNC(=O)OC)c3)n2)c(F)c1 [Compound 142] | – | – | 86% | 100%
CCC(C)Oc1cc(F)c(-n2ccc(-c3ccc(C)c(CNC(=O)OC)c3)n2)c(F)c1 (stereo not shown) [Compound 92] | – | – | 100% | 100%
COC(=O)NCc1cc(-c2ccn(-c3c(F)cc(OC(C)C)cc3F)n2)ccc1C [Compound 14, methyl N-[[5-[1-[2,6-difluoro-4-(1-methylethoxy)phenyl]-1H-pyrazol-3-yl]-2-methylphenyl]methyl]carbamate] | 100% | 100% | – | –
COC(=O)NCc1cc(-c2ccn(-c3c(F)cc(C(OC)C(C)=O)cc3F)n2)ccc1C (stereo not shown) [Compound 76] | – | – | 68% | 100%
COC(=O)NCc1cc(-c2ccn(-c3c(F)cc(OCC(F)(F)F)cc3F)n2)ccc1C [Compound 22] | 99% | 100% | – | –
COC(=O)NCc1cc(-c2ccn(-c3c(F)cc(O)cc3F)n2)ccc1C [Compound 10, methyl N-[[5-[1-(2,6-difluoro-4-hydroxyphenyl)-1H-pyrazol-3-yl]-2-methylphenyl]methyl]carbamate] | 0% | 0% | – | –
COC(=O)NCc1cc(-c2ccn(-c3c(F)cc(C(C)=NO)cc3F)n2)ccc1C [Compound 69] | – | – | 99% | 97%
COC(=O)NCc1cc(-c2ccn(-c3c(F)cccc3Cl)n2)ccc1C [Compound 47] | 74% | 100% | – | –
COC(=O)NCc1cc(-c2ccn(-c3c(F)cc(I)cc3SC)n2)ccc1C [Compound 26] | 73% | 87% | – | –
COC(=O)NCc1cc(-c2ccn(-c3c(F)cc(CO)cc3F)n2)ccc1C [Compound 71, methyl N-[[5-[1-[2,6-difluoro-4-(hydroxymethyl)phenyl]-1H-pyrazol-3-yl]-2-methylphenyl]methyl]carbamate] | 0% | 25% | – | –
COC(=O)NCc1cc(-c2ccn(-c3c(Br)cccc3I)n2)ccc1C [Compound 52] | 0% | 99% | – | –
COC(=O)NCc1cc(-c2ccn(-c3c(Cl)cc([N+](=O)[O-])cc3Cl)n2)ccc1C [Compound 54] | 0% | 0% | – | –
COC(=O)NCc1cc(-c2ccn(-c3c(F)cc(OCC4CCC4)cc3F)n2)ccc1C [Compound 31] | – | – | 91% | 0%
COC(=O)NCc1cc(-c2ccn(-c3c(F)cc(CC(C)=O)cc3F)n2)ccc1C [Compound 75] | – | – | 0% | 87%
COC(=O)NCc1cc(-c2ccn(-c3c(F)cc(Br)cc3Cl)n2)ccc1C [Compound 50] | 100% | 100% | – | –
COC(=O)NCc1cc(-c2ccn(-c3c(C)cc(Cl)cc3C)n2)ccc1C [Compound 49] | 68% | 99% | – | –
COC(=O)NCc1cc(-c2ccn(-c3c(F)cc([N+](=O)[O-])cc3Cl)n2)ccc1C [Compound 37] | 26% | 0% | – | –
COC(=O)NCc1cc(-c2ccn(-c3c(F)cc(OC4CC(F)(F)C4)cc3F)n2)ccc1C [Compound 98] | – | – | 99% | 100%
COC(=O)NCc1cc(-c2ccn(-c3c(F)cccc3I)n2)ccc1C [Compound 45] | 0% | 100% | – | –
CCON=C(C)c1cc(F)c(-n2ccc(-c3ccc(C)c(CNC(=O)OC)c3)n2)c(F)c1 [Compound 84] | – | – | 100% | 100%
COC(=O)NCc1cc(-c2ccn(-c3c(F)cc(C(=O)OC)cc3F)n2)ccc1C [Compound 70, methyl 3,5-difluoro-4-[3-[3-[[(methoxycarbonyl)amino]methyl]-4-methylphenyl]-1H-pyrazol-1-yl]benzoate] | 74% | 81% | – | –
COC(=O)NCc1cc(-c2ccn(-c3c(F)cc(OC(=O)OC)cc3F)n2)ccc1C [Compound 17] | – | – | 0% | 0%
COC(=O)NCc1cc(-c2ccn(-c3c(Cl)cccc3Cl)n2)ccc1C [Compound 44] | 68% | 100% | – | –
